From patent publication US10370366B2 (Flatley Discovery Lab, LLC, priority 2013, dated 2019)

Target: T1, human F508del CFTR (Homo sapiens, UniProt P13569, DEL508-508)
T1 construct: expressed in transfected cells; host or cells: Fisher Rat Thyroid (FRT) cells
Test: CFTR-YFP High Throughput Assay
Type: cell-based
Settings: FRT cells expressing human F508del CFTR and YFP; for Emax: EMax normalized to the positive control, read-out: % Efficacy
Procedure, shortened: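 Corrector mode: 24-26 h compound exposure (2 nM-40 μM, 37° C) of FRT cells carrying human F508del CFTR and YFP-H148Q/I152L, followed by washing and 60-120 min RT stimulation with 20 μM forskolin and 30 μM P3. CFTR activity is the least-squares-fitted rate of YFP quenching (Ex 500/Em 540 nm) after iodide addition.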

T1 sequence (P13569 with tags, fused parts or gaps DEL508-508): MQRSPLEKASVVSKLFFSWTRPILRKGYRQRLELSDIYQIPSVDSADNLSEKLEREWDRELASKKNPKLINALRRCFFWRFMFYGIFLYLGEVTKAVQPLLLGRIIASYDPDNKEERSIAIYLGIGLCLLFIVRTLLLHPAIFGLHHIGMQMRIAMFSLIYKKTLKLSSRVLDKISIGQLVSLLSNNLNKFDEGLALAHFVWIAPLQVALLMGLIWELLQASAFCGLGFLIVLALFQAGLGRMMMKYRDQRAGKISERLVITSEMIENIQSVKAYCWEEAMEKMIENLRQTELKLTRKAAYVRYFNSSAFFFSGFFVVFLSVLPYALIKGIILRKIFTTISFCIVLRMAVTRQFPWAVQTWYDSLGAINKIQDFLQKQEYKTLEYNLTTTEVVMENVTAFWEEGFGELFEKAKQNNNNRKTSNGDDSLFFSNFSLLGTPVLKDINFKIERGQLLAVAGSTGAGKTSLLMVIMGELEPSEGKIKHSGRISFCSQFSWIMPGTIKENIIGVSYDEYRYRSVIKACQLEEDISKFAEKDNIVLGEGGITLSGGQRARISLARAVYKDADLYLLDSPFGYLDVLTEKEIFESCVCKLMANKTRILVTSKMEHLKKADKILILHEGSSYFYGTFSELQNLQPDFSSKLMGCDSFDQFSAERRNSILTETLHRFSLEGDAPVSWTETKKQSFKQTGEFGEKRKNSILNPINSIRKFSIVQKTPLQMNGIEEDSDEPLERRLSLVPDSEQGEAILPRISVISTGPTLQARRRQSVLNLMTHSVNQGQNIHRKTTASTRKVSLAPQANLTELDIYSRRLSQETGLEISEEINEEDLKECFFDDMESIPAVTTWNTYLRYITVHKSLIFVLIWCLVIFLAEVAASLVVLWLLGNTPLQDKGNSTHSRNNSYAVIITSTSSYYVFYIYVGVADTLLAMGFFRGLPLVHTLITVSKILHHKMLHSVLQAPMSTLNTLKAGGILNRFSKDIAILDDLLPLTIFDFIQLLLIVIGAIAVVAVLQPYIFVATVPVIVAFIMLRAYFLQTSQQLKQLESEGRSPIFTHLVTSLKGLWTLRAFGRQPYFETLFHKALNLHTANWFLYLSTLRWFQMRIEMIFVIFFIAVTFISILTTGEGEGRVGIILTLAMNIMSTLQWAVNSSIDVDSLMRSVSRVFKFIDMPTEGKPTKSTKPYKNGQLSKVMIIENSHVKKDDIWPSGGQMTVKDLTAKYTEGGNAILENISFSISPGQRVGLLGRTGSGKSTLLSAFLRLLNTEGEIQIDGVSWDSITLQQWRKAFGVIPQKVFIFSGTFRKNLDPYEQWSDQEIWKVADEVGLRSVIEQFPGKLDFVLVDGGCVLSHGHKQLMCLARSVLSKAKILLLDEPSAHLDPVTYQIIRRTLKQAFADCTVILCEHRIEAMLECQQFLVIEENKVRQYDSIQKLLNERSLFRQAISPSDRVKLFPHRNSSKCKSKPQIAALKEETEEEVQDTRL

| Emax | EC50 | Structure (SMILES) |
| --- | --- | --- |
| 30 to 80% | < 10 µM | CCN(C(=O)c1nn(-c2ccc(C(F)(F)F)cn2)c(=O)c2c1c1ccccc1n2C)c1ccccc1 [Example 193, N-ethyl-5-methyl-4-oxo-N-phenyl-3-(5-(trifluoromethyl)pyridin-2-yl)-4,5-dihydro-3H-pyridazino[4,5-b]indole-1-carboxamide] |
| 30 to 80% | > 20 µM | CCN(C(=O)c1nn(-c2ccc(C(F)(F)F)cc2)c(=O)c2c1c1ccccc1n2C)c1ccccc1 [Example 194, N-ethyl-5-methyl-4-oxo-N-phenyl-3-(4-(trifluoromethyl)phenyl)-4,5-dihydro-3H-pyridazino[4,5-b]indole-1-carboxamide] |
| 30 to 80% | < 10 µM | CCN(C(=O)c1nn(-c2ccc(C)cc2)c(=O)c2c1c1c(OC)cccc1n2C)c1ccccc1 [Example 195, N-ethyl-9-methoxy-5-methyl-4-oxo-N-phenyl-3-(p-tolyl)-4,5-dihydro-3H-pyridazino[4,5-b]indole-1-carboxamide] |
| > 80% | > 20 µM | CCN(C(=O)c1nn(-c2ccc(C)cc2)c(=O)c2c1c1c(C)cccc1n2C)c1ccccc1 [Example 196, N-ethyl-5,9-dimethyl-4-oxo-N-phenyl-3-(p-tolyl)-4,5-dihydro-3H-pyridazino[4,5-b]indole-1-carboxamide] |
| 30 to 80% |  | CCN(C(=O)c1nn(Cc2ccccc2)c(=O)c2c1c1ccccc1n2C)c1ccccc1 [Example 197, 3-benzyl-N-ethyl-5-methyl-4-oxo-N-phenyl-4,5-dihydro-3H-pyridazino[4,5-b]indole-1-carboxamide] |
| 30 to 80% |  | CCN(C(=O)c1nn(C2CCN(Cc3ccccc3)CC2)c(=O)c2c1c1ccccc1n2C)c1ccccc1 [Example 198, 3-(1-benzylpiperidin-4-yl)-N-ethyl-5-methyl-4-oxo-N-phenyl-4,5-dihydro-3H-pyridazino[4,5-b]indole-1-carboxamide] |
| 10 to 30% | > 20 µM | CCN(C(=O)c1nn(C2CCN(C)CC2)c(=O)c2c1c1ccccc1n2C)c1ccccc1 [Example 199, N-ethyl-5-methyl-3-(1-methylpiperidin-4-yl)-4-oxo-N-phenyl-4,5-dihydro-3H-pyridazino[4,5-b]indole-1-carboxamide] |
| 30 to 80% | < 10 µM | CCN(C(=O)c1nn(C2CCN(S(=O)(=O)c3ccc4c(c3)OC(F)(F)O4)CC2)c(=O)c2c1c1ccccc1n2C)c1ccccc1 [Example 200, 3-(1-((2,2-difluorobenzo[d][1, 3]dioxol-5-yl)sulfonyl)piperidin-4-yl)-N-ethyl-5-methyl-4-oxo-N-phenyl-4,5-dihydro-3H-pyridazino[4,5-b]indole-1-carboxamide] |
| 30 to 80% |  | CCN(C(=O)c1nn(C(C)C)c(=O)c2c1c1ccccc1n2C)c1cccc(Cl)c1 [Example 201, N-(3-chlorophenyl)-N-ethyl-3-isopropyl-5-methyl-4-oxo-4,5-dihydro-3H-pyridazino[4,5-b]indole-1-carboxamide] |
| 30 to 80% |  | CCN(C(=O)Cn1nc(C(=O)N(CC)c2cccc(Cl)c2)c2c3ccccc3n(C)c2c1=O)c1ccc2c(c1)OC(F)(F)O2 [Example 202, N-(3-chlorophenyl)-3-(2-((2,2-difluorobenzo[d][1,3]dioxol-5-yl)(ethyl)amino)-2-oxoethyl)-N-ethyl-5-methyl-4-oxo-4,5-dihydro-3H-pyridazino[4,5-b]indole-1-carboxamide] |
| 30 to 80% |  | CCc1ccc(N(CC)C(=O)Cn2nc(C(=O)N(CC)c3cccc(Cl)c3)c3c4ccccc4n(C)c3c2=O)cc1 [Example 203, N-(3-chlorophenyl)-N-ethyl-3-(2-(ethyl(4-ethylphenyl)amino)-2-oxoethyl)-5-methyl-4-oxo-4,5-dihydro-3H-pyridazino[4,5-b]indole-1-carboxamide] |
| 30 to 80% |  | CCN(C(=O)c1nn(C2CCCCC2)c(=O)c2c1c1ccccc1n2C)c1cccc(Cl)c1 [Example 204, N-(3-chlorophenyl)-3-cyclohexyl-N-ethyl-5-methyl-4-oxo-4,5-dihydro-3H-pyridazino[4,5-b]indole-1-carboxamide] |
| 30 to 80% |  | CCN(C(=O)c1nn(C(C)C)c(=O)c2c1c1ccccc1n2C)c1cc(Cl)ccc1C#N [Example 205, N-(5-chloro-2-cyanophenyl)-N-ethyl-3-isopropyl-5-methyl-4-oxo-4,5-dihydro-3H-pyridazino[4,5-b]indole-1-carboxamide] |
| 30 to 80% |  | CCN(CC)C(=O)c1nn(CC(=O)N(CC)c2ccc3c(c2)OC(F)(F)O3)c(=O)c2c1c1ccccc1n2C [Example 206, 3-(2-((2,2-difluorobenzo[d][1, 3]dioxol-5-yl)(ethyl)amino)-2-oxoethyl)-N,N-diethyl-5-methyl-4-oxo-4,5-dihydro-3H-pyridazino[4,5-b]indole-1-carboxamide] |
| 30 to 80% | < 10 µM | CCN(C(=O)c1nn(C)c(=O)c2c1c1ccccc1n2C)c1ccccc1 [Example 207, N-ethyl-3,5-dimethyl-4-oxo-N-phenyl-4,5-dihydro-3H-pyridazino[4,5-b]indole-1-carboxamide] |
| 10 to 30% | < 10 µM | CC(C)n1nc(C(=O)N2CCCCC2)c2c3ccccc3n(C)c2c1=O [Example 208, 3-isopropyl-5-methyl-1-(piperidine-1-carbonyl)-3,5-dihydro-4H-pyridazino[4,5-b]indol-4-one] |
| 30 to 80% | < 10 µM | CCN(C(=O)c1nn(C)c(=O)c2c1c1ccccc1n2C)c1cccc(Cl)c1 [Example 209, N-(3-chlorophenyl)-N-ethyl-3,5-dimethyl-4-oxo-4,5-dihydro-3H-pyridazino[4,5-b]indole-1-carboxamide] |
| 30 to 80% | < 10 µM | CCOc1ccc(N(CC)C(=O)c2nn(C(C)C)c(=O)c3c2c2ccccc2n3C)cc1 [Example 210, N-(4-ethoxyphenyl)-N-ethyl-3-isopropyl-5-methyl-4-oxo-4,5-dihydro-3H-pyridazino[4,5-b]indole-1-carboxamide] |
| 30 to 80% | < 10 µM | CCN(C(=O)c1nn(C)c(=O)c2c1c1ccccc1n2C)c1ccc2c(c1)OC(F)(F)O2 [Example 211, N-(2,2-difluorobenzo[d][1,3]dioxol-5-yl)-N-ethyl-3,5-dimethyl-4-oxo-4,5-dihydro-3H-pyridazino[4,5-b]indole-1-carboxamide] |
| 30 to 80% | < 10 µM | CC(C)N(C(=O)c1nn(Cc2ccccc2)c(=O)c2c1c1ccccc1n2C)c1ccccc1 [Example 212, 3-benzyl-N-isopropyl-5-methyl-4-oxo-N-phenyl-4,5-dihydro-3H-pyridazino[4,5-b]indole-1-carboxamide] |
| 30 to 80% | < 10 µM | CCN(CC)C(=O)c1nn(CC(=O)N(CC)c2cccc(Cl)c2)c(=O)c2c1c1ccccc1n2C [Example 213, 3-(2-((3-chlorophenyl)(ethyl)amino)-2-oxoethyl)-N,N-diethyl-5-methyl-4-oxo-4,5-dihydro-3H-pyridazino[4,5-b]indole-1-carboxamide] |
| 30 to 80% | < 10 µM | CCN(C(=O)c1nn(CC(=O)N2CCCCC2)c(=O)c2c1c1ccccc1n2C)c1ccccc1 [Example 214, N-ethyl-5-methyl-4-oxo-3-(2-oxo-2-(piperidin-1-yl)ethyl)-N-phenyl-4,5-dihydro-3H-pyridazino[4,5-b]indole-1-carboxamide] |
| 30 to 80% | < 10 µM | CCN(C(=O)c1nn(CC(=O)N2CCOCC2)c(=O)c2c1c1ccccc1n2C)c1ccccc1 [Example 215, N-ethyl-5-methyl-3-(2-morpholino-2-oxoethyl)-4-oxo-N-phenyl-4,5-dihydro-3H-pyridazino[4,5-b]indole-1-carboxamide] |
| 30 to 80% | < 10 µM | CCN(C(=O)c1nn(CC2CCCO2)c(=O)c2c1c1ccccc1n2C)c1ccccc1 (stereo not shown) [Example 216, N-ethyl-5-methyl-4-oxo-N-phenyl-3-((THF-2-yl)methyl)-4,5-dihydro-3H-pyridazino[4,5-b]indole-1-carboxamide] |
| 10 to 30% | > 20 µM | CCN(C(=O)c1nn(CC(C)(C)C)c(=O)c2c1c1ccccc1n2C)c1ccccc1 [Example 217, N-ethyl-5-methyl-3-neopentyl-4-oxo-N-phenyl-4,5-dihydro-3H-pyridazino[4,5-b]indole-1-carboxamide] |
| > 80% | < 10 µM | CCN(C(=O)c1nn(C(C)c2ccccc2)c(=O)c2c1c1c(C)cccc1n2C)c1ccccc1 (stereo not shown) [Example 218, N-ethyl-5,9-dimethyl-4-oxo-N-phenyl-3-(1-phenylethyl)-4,5-dihydro-3H-pyridazino[4,5-b]indole-1-carboxamide] |
| 10 to 30% |  | CCN(C(=O)c1nn(-c2ccc(C)cc2)c(=O)c2c1c1ccccc1n2C1CCC1)c1ccccc1 [Example 219, 5-cyclobutyl-N-ethyl-4-oxo-N-phenyl-3-p-tolyl-4,5-dihydro-3H-pyridazino[4,5-b]indole-1-carboxamide] |
| 30 to 80% |  | CCN(C(=O)c1nn(-c2ccc(C)cc2)c(=O)c2[nH]c3ccccc3c12)c1ccccc1 [Example 220, N-Ethyl-4-oxo-N-phenyl-3-p-tolyl-4,5-dihydro-3H-pyridazino[4,5-b]indole-1-carboxamide] |
| 30 to 80% |  | CCN(C(=O)c1nn(-c2ccc(C)cc2)c(=O)c2[nH]c3ccccc3c12)c1cccc(Cl)c1 [Example 221, N-(3-chlorophenyl)-N-ethyl-4-oxo-3-(p-tolyl)-4,5-dihydro-3H-pyridazino[4,5-b]indole-1-carboxamide] |
| 30 to 80% | > 20 µM | CCN(C(=O)Cn1ncc2c([nH]c3ccccc32)c1=O)c1ccc2c(c1)OC(F)(F)O2 [Example 222, N-(2,2-difluorobenzo[d][1, 3]dioxol-5-yl)-N-ethyl-2-(4-oxo-4,5-dihydro-3H-pyridazino[4,5-b]indol-3-yl)acetamide] |
